The text below walks through data of patent US6127375A, “4,4-disubstituted-3,4-dihydro-2(1H)-quinazolinthiones useful as HIV reverse transcriptase inhibitors” (Dupont Pharmaceuticals Company, priority 1999, dated 2000).

This assay has as its system HIV-1 (RF). The assay is described as follows: HIV RNA Assay: Microplate Based Compound Evaluation in HIV-1 Infected MT-2 Cells. The class given is cell-based. To be noted: Human immunodeficiency virus 1, MT2, 72 h; HIV-1 (RF) in MT-2 cells, 3 days at 37° C.; value to which virus inoculum was standardized (~3×10^5 PFU per assay well); read-out: IC90 value (concentration of compound required to reduce the HIV RNA level by 90%). As for the experimental part:
Plasmid pDAB 72 containing both gag and pol sequences of BH10 (bp 113-1816) cloned into PTZ 19R was prepared according to Erickson-Viitanen et al. AIDS Research and Human Retroviruses 1989, 5, 577. The plasmid was linearized with Bam HI prior to the generation of in vitro RNA transcripts using the Riboprobe Gemini system II kit (Promega) with T7 RNA polymerase. Synthesized RNA was purified by treatment with RNase free DNAse (Promega), phenol-chloroform extraction, and ethanol precipitation. RNA transcripts were dissolved in water, and stored at -70° C. The concentration of RNA was determined from the A260.
Biotinylated capture probes were purified by HPLC after synthesis on an Applied Biosystems (Foster City, Calif.) DNA synthesizer by addition of biotin to the 5' terminal end of the oligonucleotide, using the biotin-phosphoramidite reagent of Cocuzza, Tet. Lett. 1989, 30, 6287. […]
MT-2 and MT-4 cells were maintained in RPMI 1640 supplemented with 5% fetal calf serum (FCS) for MT-2 cells or 10% FCS for MT-4 cells, 2 mM L-glutamine and 50 μg/mL gentamycin, all from Gibco. […] Infectious titers of HIV-1(RF) stocks were 1-3×10^7 PFU (plaque forming units)/mL as measured by plaque assay on MT-2 cells (see below). […]

SMILES strings stand for the structures. Values after ≈ are worked out from the molar mass of the structure shown.

`Nc1ccn([C@H]2CC[C@@H](CO)O2)c(=O)n1` [ddC, 2',3'-dideoxycytidine]: the IC90 is 0.2 µg/mL (≈ 0.947 µM).
